Laboratory results published in ChEMBL document CHEMBL4507293 (2021).

How the values were obtained:
[1] = system: ALK tyrosine kinase receptor (Homo sapiens), Q9UM73 [L1196M]; settings: Compound concentration 100.0 nM
[2] = molecular target: Bone morphogenetic protein receptor type-1B (Homo sapiens) (UniProt O00238); settings: Compound concentration 100.0 nM
[3] = molecular target: Calcium/calmodulin-dependent protein kinase kinase 1 (Homo sapiens) (UniProt Q8N5S9); settings: Compound concentration 100.0 nM
[4] = molecular target: Cyclin-dependent kinase 5 (Homo sapiens) (UniProt Q00535); settings: Compound concentration 100.0 nM
[5] = molecular target: Cyclin-dependent kinase 7 (Homo sapiens) (UniProt P50613); settings: Compound concentration 100.0 nM
[6] = molecular target: Casein kinase II subunit alpha (Homo sapiens) (UniProt P68400); settings: Compound concentration 100.0 nM
[7] = molecular target: Serine/threonine-protein kinase DCLK1 (Homo sapiens) (UniProt O15075); settings: Compound concentration 100.0 nM
[8] = molecular target: Dual specificity tyrosine-phosphorylation-regulated kinase 1B (Homo sapiens) (UniProt Q9Y463); settings: Compound concentration 100.0 nM
[9] = system: Epidermal growth factor receptor (Homo sapiens), P00533 [UNDEFINED MUTATION]; settings: Compound concentration 100.0 nM
[10] = molecular target: Eukaryotic translation initiation factor 2-alpha kinase 1 (Homo sapiens) (UniProt Q9BQI3); settings: Compound concentration 100.0 nM
[11] = molecular target: Ephrin type-A receptor 7 (Homo sapiens) (UniProt Q15375); settings: Compound concentration 100.0 nM
[12] = molecular target: Mitogen-activated protein kinase 4 (Homo sapiens) (UniProt P31152); settings: Compound concentration 100.0 nM
[13] = molecular target: Glycogen synthase kinase-3 beta (Homo sapiens) (UniProt P49841); settings: Compound concentration 100.0 nM
[14] = molecular target: Inhibitor of nuclear factor kappa-B kinase subunit alpha (Homo sapiens) (UniProt O15111); settings: Compound concentration 100.0 nM
[15] = molecular target: Inhibitor of nuclear factor kappa-B kinase subunit epsilon (Homo sapiens) (UniProt Q14164); settings: Compound concentration 100.0 nM
[16] = molecular target: Tyrosine-protein kinase JAK1 (Homo sapiens) (UniProt P23458); settings: Compound concentration 100.0 nM
[17] = molecular target: Tyrosine-protein kinase JAK2 (Homo sapiens) (UniProt O60674); settings: Compound concentration 100.0 nM
[18] = system: Mast/stem cell growth factor receptor Kit (Homo sapiens), P10721 [D816V]; settings: Compound concentration 100.0 nM
[19] = molecular target: Tyrosine-protein kinase Mer (Homo sapiens) (UniProt Q12866); settings: Compound concentration 100.0 nM
[20] = molecular target: MAP kinase-interacting serine/threonine-protein kinase 2 (Homo sapiens) (UniProt Q9HBH9); settings: Compound concentration 100.0 nM
[21] = molecular target: Mitogen-activated protein kinase kinase kinase 11 (Homo sapiens) (UniProt Q16584); settings: Compound concentration 100.0 nM
[22] = molecular target: Serine/threonine-protein kinase NLK (Homo sapiens) (UniProt Q9UBE8); settings: Compound concentration 100.0 nM
[23] = molecular target: Phosphatidylinositol 4,5-bisphosphate 3-kinase catalytic subunit alpha isoform (Homo sapiens) (UniProt P42336); settings: Compound concentration 100.0 nM
[24] = molecular target: Phosphatidylinositol 4,5-bisphosphate 3-kinase catalytic subunit gamma isoform (Homo sapiens) (UniProt P48736); settings: Compound concentration 100.0 nM
[25] = molecular target: Serine/threonine-protein kinase PknB (Mycobacterium tuberculosis) (UniProt P9WI81); settings: Compound concentration 100.0 nM
[26] = molecular target: Serine/threonine-protein kinase RIO1 (Homo sapiens) (UniProt Q9BRS2); settings: Compound concentration 100.0 nM
[27] = molecular target: Receptor-interacting serine/threonine-protein kinase 1 (Homo sapiens) (UniProt Q13546); settings: Compound concentration 100.0 nM
[28] = molecular target: Ribosomal protein S6 kinase alpha-2 (Homo sapiens) (UniProt Q15349); settings: Compound concentration 100.0 nM
[29] = molecular target: SNF-related serine/threonine-protein kinase (Homo sapiens) (UniProt Q9NRH2); settings: Compound concentration 100.0 nM
[30] = molecular target: Serine/threonine-protein kinase tousled-like 1 (Homo sapiens) (UniProt Q9UKI8); settings: Compound concentration 100.0 nM
[31] = molecular target: TRAF2 and NCK-interacting protein kinase (Homo sapiens) (UniProt Q9UKE5); settings: Compound concentration 100.0 nM
[32] = molecular target: Serine/threonine-protein kinase ULK3 (Homo sapiens) (UniProt Q6PHR2); settings: Compound concentration 100.0 nM
[33] = molecular target: Vascular endothelial growth factor receptor 2 (Homo sapiens) (UniProt P35968); settings: Compound concentration 100.0 nM
[34] = molecular target: Serine/threonine-protein kinase VRK2 (Homo sapiens) (UniProt Q86Y07); settings: Compound concentration 100.0 nM
[35] = molecular target: Serine/threonine-protein kinase WNK4 (Homo sapiens) (UniProt Q96J92); settings: Compound concentration 100.0 nM
[36] = molecular target: Serine/threonine-protein kinase 32B (Homo sapiens) (UniProt Q9NY57); settings: Compound concentration 100.0 nM
[37] = molecular target: Beta-2 adrenergic receptor (Homo sapiens) (UniProt P07550); settings: Compound concentration 10.0 uM
[38] = molecular target: T1, Muscarinic acetylcholine receptor M1 (Homo sapiens) (UniProt P11229); settings: Compound concentration 10.0 uM
T1 sequence (whole entry): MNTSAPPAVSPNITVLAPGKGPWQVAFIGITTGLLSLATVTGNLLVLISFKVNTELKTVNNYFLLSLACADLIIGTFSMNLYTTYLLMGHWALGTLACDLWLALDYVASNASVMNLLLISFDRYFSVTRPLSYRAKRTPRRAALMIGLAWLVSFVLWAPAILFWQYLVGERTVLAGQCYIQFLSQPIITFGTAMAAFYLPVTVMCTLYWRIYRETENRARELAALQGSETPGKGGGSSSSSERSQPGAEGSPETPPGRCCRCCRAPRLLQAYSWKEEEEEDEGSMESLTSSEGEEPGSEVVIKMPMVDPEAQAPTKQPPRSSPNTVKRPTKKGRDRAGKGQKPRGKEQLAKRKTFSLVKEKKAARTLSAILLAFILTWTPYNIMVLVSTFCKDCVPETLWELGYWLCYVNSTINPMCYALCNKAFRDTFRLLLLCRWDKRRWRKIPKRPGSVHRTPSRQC

Dual specificity tyrosine-phosphorylation-regulated kinase 1B (Homo sapiens), sequence (Q9Y463 whole entry, looked up): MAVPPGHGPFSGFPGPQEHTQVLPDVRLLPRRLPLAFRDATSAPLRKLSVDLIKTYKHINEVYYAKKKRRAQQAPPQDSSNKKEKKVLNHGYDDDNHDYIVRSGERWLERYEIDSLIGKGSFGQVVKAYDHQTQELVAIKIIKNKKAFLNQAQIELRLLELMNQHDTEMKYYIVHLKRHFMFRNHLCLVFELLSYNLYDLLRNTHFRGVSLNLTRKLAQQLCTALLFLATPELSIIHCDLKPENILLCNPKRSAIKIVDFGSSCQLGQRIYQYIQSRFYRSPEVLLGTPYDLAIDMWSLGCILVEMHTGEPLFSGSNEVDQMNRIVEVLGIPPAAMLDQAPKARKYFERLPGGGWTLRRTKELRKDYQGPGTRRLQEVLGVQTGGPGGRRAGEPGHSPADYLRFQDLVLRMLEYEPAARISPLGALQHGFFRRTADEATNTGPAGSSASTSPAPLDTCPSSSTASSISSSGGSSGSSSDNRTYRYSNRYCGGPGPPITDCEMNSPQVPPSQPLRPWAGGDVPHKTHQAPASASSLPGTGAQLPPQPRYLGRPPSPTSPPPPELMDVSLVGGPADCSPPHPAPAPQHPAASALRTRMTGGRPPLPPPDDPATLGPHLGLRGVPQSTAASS
Tyrosine-protein kinase JAK1 (Homo sapiens), sequence (P23458 whole entry): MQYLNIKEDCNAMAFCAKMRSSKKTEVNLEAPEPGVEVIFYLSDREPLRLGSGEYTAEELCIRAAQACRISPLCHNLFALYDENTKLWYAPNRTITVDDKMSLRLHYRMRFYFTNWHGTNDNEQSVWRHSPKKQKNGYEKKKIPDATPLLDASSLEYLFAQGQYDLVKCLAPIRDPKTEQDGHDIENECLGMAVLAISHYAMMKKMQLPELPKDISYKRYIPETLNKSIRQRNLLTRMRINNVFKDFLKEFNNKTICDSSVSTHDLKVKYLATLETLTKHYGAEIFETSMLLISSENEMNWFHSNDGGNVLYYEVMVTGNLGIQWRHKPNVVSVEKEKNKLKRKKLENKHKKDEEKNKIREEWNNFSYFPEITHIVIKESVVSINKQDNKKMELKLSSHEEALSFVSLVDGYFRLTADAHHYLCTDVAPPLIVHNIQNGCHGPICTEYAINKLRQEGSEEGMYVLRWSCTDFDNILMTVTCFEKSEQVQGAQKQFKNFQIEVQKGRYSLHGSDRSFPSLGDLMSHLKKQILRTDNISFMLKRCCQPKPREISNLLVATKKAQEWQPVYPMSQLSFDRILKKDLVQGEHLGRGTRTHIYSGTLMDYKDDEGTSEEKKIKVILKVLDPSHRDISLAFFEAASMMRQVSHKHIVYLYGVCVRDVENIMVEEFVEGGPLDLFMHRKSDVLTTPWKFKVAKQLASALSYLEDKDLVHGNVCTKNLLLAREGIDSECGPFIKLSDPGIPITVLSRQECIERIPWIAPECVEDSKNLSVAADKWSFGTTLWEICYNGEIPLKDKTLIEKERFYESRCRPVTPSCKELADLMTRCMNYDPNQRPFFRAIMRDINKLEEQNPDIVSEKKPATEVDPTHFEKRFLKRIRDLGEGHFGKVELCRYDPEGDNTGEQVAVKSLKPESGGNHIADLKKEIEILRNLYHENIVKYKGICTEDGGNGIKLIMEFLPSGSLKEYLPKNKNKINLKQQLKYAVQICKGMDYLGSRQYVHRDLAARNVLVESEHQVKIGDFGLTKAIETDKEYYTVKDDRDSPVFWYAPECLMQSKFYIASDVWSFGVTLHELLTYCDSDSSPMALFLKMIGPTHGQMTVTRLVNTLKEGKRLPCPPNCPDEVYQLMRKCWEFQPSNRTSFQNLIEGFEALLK
Serine/threonine-protein kinase RIO1 (Homo sapiens), sequence (Q9BRS2 whole entry): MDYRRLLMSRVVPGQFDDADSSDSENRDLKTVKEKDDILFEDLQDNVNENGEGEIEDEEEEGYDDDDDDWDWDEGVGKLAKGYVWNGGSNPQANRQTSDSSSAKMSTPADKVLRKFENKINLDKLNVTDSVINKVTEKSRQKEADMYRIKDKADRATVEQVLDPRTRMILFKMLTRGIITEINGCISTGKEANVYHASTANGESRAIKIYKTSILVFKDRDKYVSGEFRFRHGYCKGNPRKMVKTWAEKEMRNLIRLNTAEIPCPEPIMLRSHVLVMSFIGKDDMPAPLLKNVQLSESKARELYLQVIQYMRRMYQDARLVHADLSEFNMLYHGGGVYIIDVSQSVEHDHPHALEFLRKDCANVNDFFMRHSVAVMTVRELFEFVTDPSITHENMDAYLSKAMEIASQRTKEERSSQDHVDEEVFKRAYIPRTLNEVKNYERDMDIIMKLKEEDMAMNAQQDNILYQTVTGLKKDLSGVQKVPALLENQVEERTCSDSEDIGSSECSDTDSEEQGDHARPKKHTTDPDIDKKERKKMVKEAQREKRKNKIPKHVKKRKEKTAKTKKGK
SNF-related serine/threonine-protein kinase (Homo sapiens), sequence (Q9NRH2 whole entry): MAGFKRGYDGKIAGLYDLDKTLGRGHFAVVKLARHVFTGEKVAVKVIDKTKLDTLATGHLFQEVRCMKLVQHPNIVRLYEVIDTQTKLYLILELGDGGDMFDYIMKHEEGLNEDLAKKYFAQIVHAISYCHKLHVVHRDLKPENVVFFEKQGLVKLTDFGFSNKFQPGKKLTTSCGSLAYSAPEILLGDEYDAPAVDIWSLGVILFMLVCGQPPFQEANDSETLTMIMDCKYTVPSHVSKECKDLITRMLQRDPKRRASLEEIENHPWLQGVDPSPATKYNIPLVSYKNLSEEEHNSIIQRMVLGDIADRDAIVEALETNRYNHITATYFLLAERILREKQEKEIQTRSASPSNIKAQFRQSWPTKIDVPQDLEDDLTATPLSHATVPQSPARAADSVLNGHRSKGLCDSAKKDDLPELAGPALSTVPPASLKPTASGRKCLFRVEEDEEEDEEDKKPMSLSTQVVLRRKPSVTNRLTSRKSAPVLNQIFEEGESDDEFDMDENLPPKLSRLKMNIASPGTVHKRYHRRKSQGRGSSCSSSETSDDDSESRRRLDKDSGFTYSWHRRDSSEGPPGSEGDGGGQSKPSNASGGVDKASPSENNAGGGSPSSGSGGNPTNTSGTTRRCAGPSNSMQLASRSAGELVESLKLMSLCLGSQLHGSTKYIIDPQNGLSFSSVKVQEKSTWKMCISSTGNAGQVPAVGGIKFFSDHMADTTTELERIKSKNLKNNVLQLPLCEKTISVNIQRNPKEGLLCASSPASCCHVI
Tyrosine-protein kinase JAK2 (Homo sapiens), sequence (O60674 whole entry): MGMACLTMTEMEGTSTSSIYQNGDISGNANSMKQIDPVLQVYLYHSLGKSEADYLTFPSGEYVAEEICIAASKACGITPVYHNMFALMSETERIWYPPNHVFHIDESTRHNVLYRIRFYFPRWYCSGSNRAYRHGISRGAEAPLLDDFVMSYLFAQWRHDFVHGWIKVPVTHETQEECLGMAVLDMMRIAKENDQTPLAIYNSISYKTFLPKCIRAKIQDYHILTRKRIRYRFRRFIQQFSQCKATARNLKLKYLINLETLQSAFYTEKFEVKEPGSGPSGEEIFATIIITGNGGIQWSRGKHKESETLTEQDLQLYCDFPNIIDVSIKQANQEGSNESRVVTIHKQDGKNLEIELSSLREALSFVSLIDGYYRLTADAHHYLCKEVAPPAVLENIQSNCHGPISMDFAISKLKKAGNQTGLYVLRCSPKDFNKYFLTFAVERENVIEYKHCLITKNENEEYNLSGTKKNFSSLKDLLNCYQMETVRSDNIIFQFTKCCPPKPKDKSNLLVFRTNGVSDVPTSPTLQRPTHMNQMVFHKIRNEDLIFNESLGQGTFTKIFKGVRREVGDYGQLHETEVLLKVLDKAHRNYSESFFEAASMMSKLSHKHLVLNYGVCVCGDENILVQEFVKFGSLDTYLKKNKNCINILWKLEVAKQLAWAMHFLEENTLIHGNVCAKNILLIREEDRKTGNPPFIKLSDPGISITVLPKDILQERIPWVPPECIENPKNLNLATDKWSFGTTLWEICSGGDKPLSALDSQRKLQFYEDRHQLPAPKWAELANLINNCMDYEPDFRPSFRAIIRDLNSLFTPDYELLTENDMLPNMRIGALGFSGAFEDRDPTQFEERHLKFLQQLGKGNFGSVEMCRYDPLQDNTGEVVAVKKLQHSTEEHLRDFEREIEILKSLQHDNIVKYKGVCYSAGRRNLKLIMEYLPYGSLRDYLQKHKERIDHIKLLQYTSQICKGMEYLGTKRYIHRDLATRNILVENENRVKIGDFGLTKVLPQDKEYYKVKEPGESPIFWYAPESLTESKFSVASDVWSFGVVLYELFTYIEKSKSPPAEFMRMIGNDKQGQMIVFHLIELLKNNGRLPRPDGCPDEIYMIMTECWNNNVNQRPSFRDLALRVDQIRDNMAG
Inhibitor of nuclear factor kappa-B kinase subunit epsilon (Homo sapiens), sequence (Q14164 whole entry): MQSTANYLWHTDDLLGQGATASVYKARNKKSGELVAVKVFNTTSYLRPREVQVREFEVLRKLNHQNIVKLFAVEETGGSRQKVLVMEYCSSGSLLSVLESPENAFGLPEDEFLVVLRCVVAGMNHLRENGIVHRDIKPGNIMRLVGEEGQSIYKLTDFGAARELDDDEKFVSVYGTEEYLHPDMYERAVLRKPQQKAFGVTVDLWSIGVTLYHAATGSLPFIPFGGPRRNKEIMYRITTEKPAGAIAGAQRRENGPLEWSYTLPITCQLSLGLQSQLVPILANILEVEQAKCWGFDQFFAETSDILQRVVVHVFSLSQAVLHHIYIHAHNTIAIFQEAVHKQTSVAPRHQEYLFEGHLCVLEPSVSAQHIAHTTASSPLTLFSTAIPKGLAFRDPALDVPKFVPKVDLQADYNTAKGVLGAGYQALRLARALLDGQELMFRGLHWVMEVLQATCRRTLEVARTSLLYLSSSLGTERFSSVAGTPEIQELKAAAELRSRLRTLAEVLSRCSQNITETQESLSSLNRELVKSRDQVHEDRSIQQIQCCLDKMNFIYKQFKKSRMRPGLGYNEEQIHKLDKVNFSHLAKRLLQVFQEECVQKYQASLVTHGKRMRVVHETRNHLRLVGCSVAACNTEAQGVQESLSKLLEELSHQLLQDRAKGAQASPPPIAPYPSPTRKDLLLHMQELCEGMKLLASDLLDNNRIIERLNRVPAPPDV

CC(C)CC(=O)N1CCc2nc(-c3ccc(Br)cc3)nc(N(C)Cc3ccccc3)c2C1 [THPP-1-NC]
inactive: residual activity [1] 100% | residual activity [2] 100% | residual activity [3] 100% | residual activity [4] 100% | residual activity [5] 65% | residual activity [6] 100% | residual activity [7] 100% | residual activity [8] 77% | residual activity [9] 100% | residual activity [10] 100% | residual activity [11] 99% | residual activity [12] 100% | residual activity [13] 100% | residual activity [14] 100% | residual activity [15] 100% | residual activity [16] 100% | residual activity [17] 100% | residual activity [18] 100% | residual activity [19] 100% | residual activity [20] 73% | residual activity [21] 100% | residual activity [22] 100% | residual activity [23] 77% | residual activity [24] 100% | residual activity [25] 97% | residual activity [26] 98% | residual activity [27] 100% | residual activity [28] 100% | residual activity [29] 84% | residual activity [30] 100% | residual activity [31] 100% | residual activity [32] 89% | residual activity [33] 100% | residual activity [34] 77% | residual activity [35] 100% | residual activity [36] 87% | inhibition [37] 5.63% | inhibition [38] 4.18%

COCCOc1nc(-c2ccc(Cl)nc2)nc2c1CN(C(=O)c1ncn3ccccc13)CC2 [THPP-1]
inactive: residual activity [1] 100% | residual activity [2] 100% | residual activity [3] 100% | residual activity [4] 100% | residual activity [5] 77% | residual activity [6] 99% | residual activity [7] 100% | residual activity [8] 83% | residual activity [9] 100% | residual activity [10] 100% | residual activity [11] 100% | residual activity [12] 100% | residual activity [13] 100% | residual activity [14] 100% | residual activity [15] 100% | residual activity [16] 100% | residual activity [17] 100% | residual activity [18] 100% | residual activity [19] 89% | residual activity [20] 100% | residual activity [21] 100% | residual activity [22] 100% | residual activity [23] 85% | residual activity [24] 100% | residual activity [25] 86% | residual activity [26] 93% | residual activity [27] 100% | residual activity [28] 100% | residual activity [29] 79% | residual activity [30] 100% | residual activity [31] 100% | residual activity [32] 81% | residual activity [33] 100% | residual activity [34] 91% | residual activity [35] 100% | residual activity [36] 100% | inhibition [37] -0.65% | inhibition [38] -4.03%
